{
  "source": "paper PMC2999882",
  "about": "(Molecular pharmacology, 2008)",
  "key": {"[1]": {"target": "T1, 5HT3 receptors (Homo sapiens, UniProt P46098)", "T1 sequence (P46098 24-478)": "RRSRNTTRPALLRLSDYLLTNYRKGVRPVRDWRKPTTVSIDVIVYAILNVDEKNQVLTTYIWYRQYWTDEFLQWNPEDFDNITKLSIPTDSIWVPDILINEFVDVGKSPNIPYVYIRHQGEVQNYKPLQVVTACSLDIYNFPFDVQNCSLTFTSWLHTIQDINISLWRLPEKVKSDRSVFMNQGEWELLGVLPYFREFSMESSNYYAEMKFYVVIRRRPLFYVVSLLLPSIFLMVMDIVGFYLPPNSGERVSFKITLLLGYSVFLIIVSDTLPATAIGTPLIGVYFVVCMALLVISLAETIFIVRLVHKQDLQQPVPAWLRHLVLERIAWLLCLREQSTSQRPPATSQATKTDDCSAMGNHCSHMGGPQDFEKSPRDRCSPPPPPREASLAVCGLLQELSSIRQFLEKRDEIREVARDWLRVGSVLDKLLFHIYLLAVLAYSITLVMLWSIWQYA", "conditions": "cited from earlier work"}, "[2]": {"tested_on": "rat brain membrane α7 sites", "conditions": "cited from earlier work"}, "[3]": {"tested_on": "human α7", "conditions": "cited from earlier work"}, "[4]": {"target": "T1, 5HT3 receptors", "conditions": "cited from earlier work", "remark": "listed apart in the source"}, "[5]": {"tested_on": "other nAChR tested", "conditions": "cited from earlier work"}, "[6]": {"tested_on": "α7 nAChR", "conditions": "cited from earlier work"}, "[7]": {"tested_on": "rat α7 nAChR", "conditions": "X. laevis oocytes; ref Papke et al., 2005b; cited from earlier work"}, "[8]": {"target": "T2, α4β2 nAChR (Homo sapiens, UniProt P17787+P43681)", "T2 sequence (P43681 29-627 limits assumed)": "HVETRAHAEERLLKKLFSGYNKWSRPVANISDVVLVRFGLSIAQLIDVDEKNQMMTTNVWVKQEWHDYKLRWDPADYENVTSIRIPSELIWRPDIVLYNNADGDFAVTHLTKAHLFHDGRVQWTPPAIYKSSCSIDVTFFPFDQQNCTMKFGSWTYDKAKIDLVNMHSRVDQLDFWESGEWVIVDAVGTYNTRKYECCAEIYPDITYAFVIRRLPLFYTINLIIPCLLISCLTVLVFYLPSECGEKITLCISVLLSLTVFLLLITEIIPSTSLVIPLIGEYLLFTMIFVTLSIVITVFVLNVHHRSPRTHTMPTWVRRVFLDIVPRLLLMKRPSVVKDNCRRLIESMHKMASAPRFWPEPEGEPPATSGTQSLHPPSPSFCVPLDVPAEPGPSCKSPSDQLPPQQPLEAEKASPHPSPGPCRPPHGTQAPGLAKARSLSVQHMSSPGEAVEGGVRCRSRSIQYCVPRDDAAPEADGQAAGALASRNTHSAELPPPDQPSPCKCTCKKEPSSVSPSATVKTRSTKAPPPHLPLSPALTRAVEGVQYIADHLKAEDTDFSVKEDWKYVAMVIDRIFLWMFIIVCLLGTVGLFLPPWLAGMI", "T2 sequence (P17787 26-502)": "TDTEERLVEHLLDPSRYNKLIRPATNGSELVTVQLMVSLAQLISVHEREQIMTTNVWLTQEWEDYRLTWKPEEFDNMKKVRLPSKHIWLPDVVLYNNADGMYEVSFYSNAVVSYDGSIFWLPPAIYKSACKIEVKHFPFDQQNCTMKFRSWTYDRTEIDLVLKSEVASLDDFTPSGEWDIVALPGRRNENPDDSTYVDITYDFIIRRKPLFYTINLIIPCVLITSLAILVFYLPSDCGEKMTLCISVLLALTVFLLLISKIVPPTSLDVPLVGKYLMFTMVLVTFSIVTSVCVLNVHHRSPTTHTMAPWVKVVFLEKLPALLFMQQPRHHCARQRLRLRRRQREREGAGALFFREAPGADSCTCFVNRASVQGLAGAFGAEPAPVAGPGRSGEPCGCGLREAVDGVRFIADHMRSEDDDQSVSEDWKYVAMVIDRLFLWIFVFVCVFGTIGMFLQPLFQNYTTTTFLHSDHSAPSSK", "test": "cell-based", "assay_type": "cell-based"}, "[9]": {"target": "T3, muscle type (α1β1εδ) nAChR (Homo sapiens, UniProt P02708+Q04844+Q07001)", "T3 sequence (P02708 21-457)": "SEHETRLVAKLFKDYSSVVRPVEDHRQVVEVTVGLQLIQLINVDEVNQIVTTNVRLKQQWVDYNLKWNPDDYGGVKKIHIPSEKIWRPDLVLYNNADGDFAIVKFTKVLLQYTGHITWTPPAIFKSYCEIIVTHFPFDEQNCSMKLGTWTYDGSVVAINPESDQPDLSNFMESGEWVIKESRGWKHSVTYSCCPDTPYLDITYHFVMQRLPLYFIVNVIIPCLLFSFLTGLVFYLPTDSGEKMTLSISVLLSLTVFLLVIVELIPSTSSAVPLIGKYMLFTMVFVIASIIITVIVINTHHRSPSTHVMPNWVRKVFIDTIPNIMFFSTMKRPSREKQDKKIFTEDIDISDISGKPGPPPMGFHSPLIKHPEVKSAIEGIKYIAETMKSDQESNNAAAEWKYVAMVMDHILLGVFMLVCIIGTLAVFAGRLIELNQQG", "T3 sequence (P11230 24-501 partner)": "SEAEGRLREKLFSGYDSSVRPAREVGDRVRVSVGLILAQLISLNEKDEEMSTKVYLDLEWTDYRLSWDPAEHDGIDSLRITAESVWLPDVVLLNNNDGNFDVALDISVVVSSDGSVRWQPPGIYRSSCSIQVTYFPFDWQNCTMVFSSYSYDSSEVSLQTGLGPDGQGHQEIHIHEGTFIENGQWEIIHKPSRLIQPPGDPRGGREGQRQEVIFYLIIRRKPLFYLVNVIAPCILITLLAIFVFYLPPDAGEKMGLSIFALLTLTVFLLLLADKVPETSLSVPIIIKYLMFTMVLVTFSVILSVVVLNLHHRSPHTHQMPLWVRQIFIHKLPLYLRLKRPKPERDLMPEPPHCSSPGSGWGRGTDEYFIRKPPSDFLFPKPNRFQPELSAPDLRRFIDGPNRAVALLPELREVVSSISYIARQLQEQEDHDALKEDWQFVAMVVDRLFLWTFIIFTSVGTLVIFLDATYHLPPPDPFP", "T3 sequence (Q04844 21-493)": "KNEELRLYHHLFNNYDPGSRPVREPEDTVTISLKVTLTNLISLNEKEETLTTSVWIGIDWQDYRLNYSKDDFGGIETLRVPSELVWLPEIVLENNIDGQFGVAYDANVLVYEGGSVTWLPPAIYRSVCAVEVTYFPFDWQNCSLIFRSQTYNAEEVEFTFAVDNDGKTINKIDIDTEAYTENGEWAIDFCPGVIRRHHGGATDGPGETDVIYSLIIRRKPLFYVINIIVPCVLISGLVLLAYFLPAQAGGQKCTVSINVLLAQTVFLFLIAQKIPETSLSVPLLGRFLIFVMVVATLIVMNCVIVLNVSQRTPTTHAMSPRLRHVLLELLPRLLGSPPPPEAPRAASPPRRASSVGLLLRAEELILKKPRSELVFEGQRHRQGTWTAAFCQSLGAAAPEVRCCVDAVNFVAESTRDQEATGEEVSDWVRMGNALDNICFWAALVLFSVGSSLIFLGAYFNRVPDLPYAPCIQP", "T3 sequence (Q07001 22-517)": "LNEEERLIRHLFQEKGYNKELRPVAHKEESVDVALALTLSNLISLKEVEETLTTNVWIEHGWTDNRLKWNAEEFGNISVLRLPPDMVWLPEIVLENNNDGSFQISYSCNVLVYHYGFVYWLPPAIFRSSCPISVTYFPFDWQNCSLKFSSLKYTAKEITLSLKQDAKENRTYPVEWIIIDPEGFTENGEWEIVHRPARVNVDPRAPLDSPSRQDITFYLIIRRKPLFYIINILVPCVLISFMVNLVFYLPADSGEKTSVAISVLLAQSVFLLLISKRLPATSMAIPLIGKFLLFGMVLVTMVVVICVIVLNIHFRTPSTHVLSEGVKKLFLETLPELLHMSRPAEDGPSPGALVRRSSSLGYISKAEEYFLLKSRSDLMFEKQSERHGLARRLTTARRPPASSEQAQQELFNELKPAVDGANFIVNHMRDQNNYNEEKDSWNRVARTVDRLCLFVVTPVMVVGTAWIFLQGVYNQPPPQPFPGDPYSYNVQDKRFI", "assay_type": "cell-based", "conditions": "100 µM; normalized to ACh maximum; detection threshold 0.5%"}, "[10]": {"target": "T2, α4β2 nAChR", "assay_type": "cell-based", "conditions": "100 µM coapplied with 30 µM ACh"}, "[11]": {"target": "α3β4 nAChR (Homo sapiens, UniProt P30926+P32297)", "sequence (P32297 32-505)": "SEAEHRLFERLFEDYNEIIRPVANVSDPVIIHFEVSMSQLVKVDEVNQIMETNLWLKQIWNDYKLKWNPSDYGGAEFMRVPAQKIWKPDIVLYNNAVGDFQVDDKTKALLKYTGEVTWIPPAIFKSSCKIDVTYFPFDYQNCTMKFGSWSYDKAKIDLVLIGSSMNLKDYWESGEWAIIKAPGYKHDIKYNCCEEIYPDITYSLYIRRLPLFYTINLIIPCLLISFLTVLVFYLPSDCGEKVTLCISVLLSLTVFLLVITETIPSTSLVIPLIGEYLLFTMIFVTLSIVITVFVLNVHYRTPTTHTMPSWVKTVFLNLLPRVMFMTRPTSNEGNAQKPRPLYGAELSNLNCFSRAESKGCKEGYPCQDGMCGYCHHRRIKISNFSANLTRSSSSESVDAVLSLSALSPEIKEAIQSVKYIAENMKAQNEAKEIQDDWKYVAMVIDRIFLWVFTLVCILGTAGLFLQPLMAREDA", "sequence (P30926 22-498)": "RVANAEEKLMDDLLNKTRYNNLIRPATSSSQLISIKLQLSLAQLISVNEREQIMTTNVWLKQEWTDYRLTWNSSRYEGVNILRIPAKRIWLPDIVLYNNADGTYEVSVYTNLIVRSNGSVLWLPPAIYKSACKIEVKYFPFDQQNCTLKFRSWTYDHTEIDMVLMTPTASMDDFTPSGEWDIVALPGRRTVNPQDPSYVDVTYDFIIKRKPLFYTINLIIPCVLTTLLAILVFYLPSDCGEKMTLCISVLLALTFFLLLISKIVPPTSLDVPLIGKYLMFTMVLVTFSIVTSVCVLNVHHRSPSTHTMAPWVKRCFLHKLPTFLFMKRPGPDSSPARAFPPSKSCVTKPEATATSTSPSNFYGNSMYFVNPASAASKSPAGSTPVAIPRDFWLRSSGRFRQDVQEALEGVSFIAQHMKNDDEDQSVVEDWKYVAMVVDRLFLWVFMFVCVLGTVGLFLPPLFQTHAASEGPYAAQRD"}, "[12]": {"target": "T3, muscle type (α1β1εδ) nAChR", "assay_type": "cell-based", "conditions": "100 µM coapplied with 3 µM ACh"}, "[13]": {"target": "T1, 5HT3 receptors", "assay_type": "cell-based", "conditions": "100 µM; normalized to maximal serotonin response; detection threshold 5%"}, "[14]": {"target": "T1, 5HT3 receptors", "assay_type": "cell-based", "conditions": "100 µM coapplied with 10 µM serotonin"}, "[15]": {"target": "α7 nAChR (Homo sapiens, UniProt P36544)", "sequence (P36544 23-502)": "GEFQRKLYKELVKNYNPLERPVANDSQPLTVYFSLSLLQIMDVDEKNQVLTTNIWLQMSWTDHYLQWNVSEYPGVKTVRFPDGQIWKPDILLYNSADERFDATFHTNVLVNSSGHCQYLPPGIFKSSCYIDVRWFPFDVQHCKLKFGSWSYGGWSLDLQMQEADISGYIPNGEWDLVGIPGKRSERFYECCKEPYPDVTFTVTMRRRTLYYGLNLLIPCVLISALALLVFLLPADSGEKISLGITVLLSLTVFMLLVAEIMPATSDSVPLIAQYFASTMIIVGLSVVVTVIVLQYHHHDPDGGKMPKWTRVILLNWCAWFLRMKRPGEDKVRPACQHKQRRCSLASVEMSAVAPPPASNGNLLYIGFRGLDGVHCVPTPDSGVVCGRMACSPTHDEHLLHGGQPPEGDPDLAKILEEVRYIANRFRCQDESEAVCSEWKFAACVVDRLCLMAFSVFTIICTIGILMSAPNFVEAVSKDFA"}, "[16]": {"tested_on": "α9 nAChR", "conditions": "ref Papke et al., 1996; Verbitsky et al., 2000; cited from earlier work"}},
  "note": "Several values for one entry are separate records, joined by “and”; a condition that tells them apart may be missing. Equal values may be shown once. Read-outs that look alike come from different tables or passages of the source.",
  "data": [
    {"compound": "COc1ccccc1-c1cccc2cc(C(=O)N[C@H]3CN4CCC3CC4)oc12", "note": "[ABBF, N-[(3R)-1-azabicyclo[2.2.2]oct-3-yl]-7-[2-(methoxy)phenyl]-1-benzofuran-2-carboxamide]", "values": [
      {"measurement": "Effects on 5HT3 Receptors", "setting": "[1]", "result": "Antagonist"},
      {"measurement": "affinity for rat brain membrane α7 sites", "setting": "[2]", "result": "Putative full agonist for human α7 (EC50 ≈ 3 µM) and an antagonist for other nAChR tested (IC50 values of 1–8 µM). Mechanism of antagonism not investigated. Bound to 5HT3 receptors with high affinity (60 nM), comparable with rat brain membrane α7 sites (62 nM)."},
      {"measurement": "agonist character at human α7 (Summary)", "setting": "[3]", "result": "Putative full agonist for human α7 (EC50 ≈ 3 µM) and an antagonist for other nAChR tested (IC50 values of 1–8 µM). Mechanism of antagonism not investigated. Bound to 5HT3 receptors with high affinity (60 nM), comparable with rat brain membrane α7 sites (62 nM)."},
      {"measurement": "EC50", "setting": "[3]; read-out: EC50 human α7", "result": "~3", "unit": "µM"},
      {"measurement": "affinity for 5HT3 receptors", "setting": "[4]", "result": "Putative full agonist for human α7 (EC50 ≈ 3 µM) and an antagonist for other nAChR tested (IC50 values of 1–8 µM). Mechanism of antagonism not investigated. Bound to 5HT3 receptors with high affinity (60 nM), comparable with rat brain membrane α7 sites (62 nM)."}
    ]},
    {"compound": "CN1C[C@@H]2CN(c3ccc4oc5ccccc5c(=O)c4c3)C[C@@H]2C1", "note": "[A-844606]", "values": [
      {"measurement": "activity at other nAChR (Summary)", "setting": "[5]", "result": "Partial agonist of a7 with relatively little activation of other nAChR tested. Demonstrated to have antagonist activity for α4β2 and more potently for putative α3β4. Mechanism of antagonism not investigated."},
      {"measurement": "agonist character at α7 (Summary)", "setting": "[6]", "result": "Partial agonist of a7 with relatively little activation of other nAChR tested. Demonstrated to have antagonist activity for α4β2 and more potently for putative α3β4. Mechanism of antagonism not investigated."}
    ]},
    {"compound": "cis-1-methyl-2,3,3a,4,5,9b,-hexahydro-1H-pyrrolo[2,3-f]quinoline [ACME]", "values": [
      {"measurement": "Imax, % of that of ACh, rat α7 nAChR", "setting": "[7]", "result": "The rigid nicotine analogs ACME and ACME-B were partial agonists for rat α7 nAChR (Imax, 10 and 20% of that of ACh, respectively). ACME-B was 2-fold more potent (EC50 ≈ 26 µM) than the boron-free form ACME. Potential antagonist activity of non-α7 nAChR not investigated."}
    ]},
    {"compound": "C[C@H](OC(=O)N[C@@H]1CN2CCC1CC2)c1ccccc1F", "note": "[JN403]", "values": [
      {"measurement": "IC50", "setting": "[1]; read-out: IC50 5HT3 receptors (antagonist)", "result": "~20", "unit": "µM"},
      {"measurement": "activity at 5HT3 receptors and other nAChRs (Summary)", "setting": "[5]", "result": "In the X. laevis oocyte experiments, JN403 was a relatively potent partial agonist, with an efficacy of approximately 50% of that of ACh. 5HT3 receptors and other nAChRs were evaluated with calcium flux measurements in transfected cells, and JN403 was antagonist in these experiments."},
      {"measurement": "α7 efficacy, % of that of ACh", "setting": "[6]", "result": "In the X. laevis oocyte experiments, JN403 was a relatively potent partial agonist, with an efficacy of approximately 50% of that of ACh. 5HT3 receptors and other nAChRs were evaluated with calcium flux measurements in transfected cells, and JN403 was antagonist in these experiments."}
    ]},
    {"compound": "C[N+](C)(C)CCO", "note": "[Choline, choline, reference compound]", "values": [
      {"measurement": "α4β2 Activity", "setting": "[8]; 100 µM, normalized to ACh maximum, detection threshold 1%", "result": "≈1%"},
      {"measurement": "α4β2 response, % of the ACh maximum", "setting": "[8]; 3 mM agonist", "result": "2.3 ± 0.3% and 2%"},
      {"measurement": "α1β1εδ Activity", "setting": "[9]", "result": "N"},
      {"measurement": "α4β2 Inhibition", "setting": "[10]", "result": "N.S."},
      {"measurement": "agonist character at α3β4", "setting": "[11]", "result": "too low to be characterized in regard to potency"},
      {"measurement": "α3β4 Imax", "setting": "[11]; peak current, relative to ACh maximum (ACh constrained to 1)", "result": "0.04 ± 0.01"},
      {"measurement": "α1β1εδ Inhibition", "setting": "[12]", "result": "N.S."},
      {"measurement": "activity at heteromeric nAChR (Summary)", "setting": "[5]; ref Papke et al., 1996, Verbitsky et al., 2000", "result": "little or no activity"},
      {"measurement": "potency for α7, fold lower than that of ACh", "setting": "[6]", "result": 10, "unit": "fold"},
      {"measurement": "5HT3 Activity", "setting": "[13]", "result": "N"},
      {"measurement": "5HT3 Inhibition", "setting": "[14]", "result": "N.S."},
      {"measurement": "EC50", "setting": "[15]", "result": "243 ± 8", "unit": "µM"},
      {"measurement": "α7 Imax", "setting": "[15]", "result": "0.90 ± 0.1"},
      {"measurement": "α7 potency, fold less potent than ACh", "setting": "[15]", "result": "approximately 10 fold"},
      {"measurement": "α7 potency, fold lower than related agonists that lack the oxygen group (e.g., ETMA and QN)", "setting": "[15]", "result": "at least 10 fold"},
      {"measurement": "activity at α9 nAChR (Summary)", "setting": "[16]", "result": "agonist"}
    ]},
    {"compound": "CCN(CC)CCOc1ccc2c(c1)C(=O)c1cc(OCCN(CC)CC)ccc1-2", "note": "[Tilorone]", "values": [
      {"measurement": "activity at other nAChR (Summary)", "setting": "[5]; α4β2, putative α3β4 (IMR-32), ref Briggs et al., 2008", "result": "antagonist activity for α4β2 and more potently for putative α3β4"},
      {"measurement": "agonist character at α7 (Summary)", "setting": "[6]; human α7, rat α7, oocytes, transfected cells, ref Briggs et al., 2008", "result": "Partial agonist"}
    ]},
    {"compound": "c1cncc(C2CCC3CCN2CC3)c1", "note": "(centres unmarked) [TC-1698, 2-(3-pyridyl)-1-azabicyclo[3.2.2]nonane]", "values": [
      {"measurement": "activation of the heteromeric neuronal nAChR tested (Summary)", "setting": "[5]", "result": "A potent full agonist for α7 nAChR with negligible activation of the heteromeric neuronal nAChR tested but with low-potency partial agonist activity for muscle nAChR. Effective competitive antagonist at α4β2 nAChR."},
      {"measurement": "activity at α4β2 nAChR (Summary)", "setting": "[5]", "result": "A potent full agonist for α7 nAChR with negligible activation of the heteromeric neuronal nAChR tested but with low-potency partial agonist activity for muscle nAChR. Effective competitive antagonist at α4β2 nAChR."},
      {"measurement": "activity for muscle nAChR (Summary)", "setting": "[5]", "result": "A potent full agonist for α7 nAChR with negligible activation of the heteromeric neuronal nAChR tested but with low-potency partial agonist activity for muscle nAChR. Effective competitive antagonist at α4β2 nAChR."},
      {"measurement": "agonist character at α7 (Summary)", "setting": "[6]", "result": "A potent full agonist for α7 nAChR with negligible activation of the heteromeric neuronal nAChR tested but with low-potency partial agonist activity for muscle nAChR. Effective competitive antagonist at α4β2 nAChR."}
    ]},
    {"compound": "O=C(N[C@H]1CN2CCC1CC2)c1ccc(Cl)cc1", "note": "[PNU-282987]", "values": [
      {"measurement": "IC50", "setting": "[1]; read-out: IC50 5HT3 receptors (functional antagonist)", "result": "~5", "unit": "µM"},
      {"measurement": "Ki", "setting": "[2]; read-out: Ki, displacement of MLA binding from rat brain homogenates", "result": 0.027, "unit": "µM"}
    ]}
  ]
}
